Molecular target: T1, KCNQ 2/3 channels (Homo sapiens, UniProt O43525+O43526)
T1 construct: expressed in transfected cells; host or cells: HEK293
Test: KCNQ 2/3 channel activation, thallium flux FLIPR assay (BTC-AM dye)
Format: cell-based
Details: for Emax: HEK293, maximum response relative to the response of 10 μM retigabine (set at 100%), read-out: % MAX; for EC50: HEK293 cells stably expressing human KCNQ2 and KCNQ3 subunits, thallium-induced fluorescence, 4 min compound incubation
Method in brief: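 HEK293 cells stably expressing human KCNQ2/KCNQ3 were loaded with BTC-AM (3 μg/mL, 2 h, RT) and preincubated with compound for 4 min in pH 7.3 gluconate buffer containing 0.1 mM ouabain. Flux was triggered by 6 mM TlNO3/10 mM K2SO4 and read for 3 min; EC50 came from summed responses over basal, with maximum relative to 10 μM retigabine (100%).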

Row | Structure (SMILES) | Emax (HEK293 KCNQ2/KCNQ3 cells) | EC50 | % MAX (maximum response relative to the response of 10 μM retigabine (set at 100%), HEK293 KCNQ2/KCNQ3 cells)
1 | CC(C)(C)OC(=O)NCc1nn(NC(=O)Cc2ccc(F)cc2)c(=O)c2ccccc12 [Example 125, tert-butyl[(3-{[(4-fluorophenyl)acetyl]amino}-4-oxo-3,4-dihydrophthalazin-1-yl)methyl]carbamate] | 93.1% | 9900 nM | –
2 | CC(C)[C@H]1CC[C@H](C)C[C@@H]1OC(=O)NCc1nn(NC(=O)Cc2ccc(Cl)cc2)c(=O)c2ccccc12 [Example 186, (1S,2R,5S)-5-methyl-2-(propan-2-yl)cyclohexyl[(3-{[(4-chlorophenyl)acetyl]amino}-4-oxo-3,4-dihydrophthalazin-1-yl)methyl]carbamate] | – | – | 11.8%
3 | O=C(Cc1ccc(Cl)cc1)Nn1nc(Sc2ccncc2)c2ccccc2c1=O [Example 191, 2-(4-chlorophenyl)-N-[1-oxo-4-(pyridin-4-ylsulfanyl)phthalazin-2(1H)-yl]acetamide] | 78.5% | 1320 nM | –
4 | CC(C)(CC(=O)Nn1nc(S(=O)(=O)c2ccccc2)c2ccccc2c1=O)c1ccccc1 [Example 194, 3-methyl-N-[1-oxo-4-(phenylsulfonyl)phthalazin-2(1H)-yl]-3-phenylbutanamide] | 63.4% | 1780 nM | –
5 | O=C(CC1CC2CCC1C2)Nn1nc(Cc2cc[n+]([O-])cc2)c2ccccc2c1=O (racemic) [Example 100, (±)-2-[(exo)-bicyclo[2.2.1]hept-2-yl]-N-{4-[(1-oxidopyridin-4-yl)methyl]-1-oxophthalazin-2(1H)-yl}acetamide] | 53.4% | 916 nM | –
6 | O=C(Cc1ccc(Oc2ccccc2)cc1)Nn1nc(N2CCOCC2)c2ccccc2c1=O [Example 163, N-[4-(morpholin-4-yl)-1-oxophthalazin-2(1H)-yl]-2-(4-phenoxyphenyl)acetamide] | 30.8% | – | –
7 | O=C(Cc1cccc2ccccc12)Nn1nc(N2CCOCC2)c2ccccc2c1=O [Example 165, N-[4-(morpholin-4-yl)-1-oxophthalazin-2(1H)-yl]-2-(naphthalen-1-yl)acetamide] | 7.96% | – | –
8 | O=C(Cc1cccc([N+](=O)[O-])c1)Nn1nc(N2CCOCC2)c2ccccc2c1=O [Example 156, N-[4-(morpholin-4-yl)-1-oxophthalazin-2(1H)-yl]-2-(3-nitrophenyl)acetamide] | 32.8% | – | –
9 | O=C(Cc1ccccc1[N+](=O)[O-])Nn1nc(N2CCOCC2)c2ccccc2c1=O [Example 142, N-[4-(morpholin-4-yl)-1-oxophthalazin-2(1H)-yl]-2-(2-nitrophenyl)acetamide] | 1.59% | – | –
10 | O=C(Cc1ccc(OC(F)(F)F)cc1)Nn1nc(N2CCOCC2)c2ccccc2c1=O [Example 132, N-[4-(morpholin-4-yl)-1-oxophthalazin-2(1H)-yl]-2-[4-(trifluoromethoxy)phenyl]acetamide] | 105% | 1690 nM | –
11 | Nc1ccc(Sc2nn(NC(=O)Cc3ccc(Cl)cc3)c(=O)c3ccccc23)cc1 [Example 105, N-{4-[(4-aminophenyl)sulfanyl]-1-oxophthalazin-2(1H)-yl}-2-(4-chlorophenyl)acetamide] | 120% | 889 nM | –
12 | CS(=O)(=O)NCc1nn(NC(=O)Cc2ccc(Cl)cc2)c(=O)c2ccccc12 [Example 80, 2-(4-chlorophenyl)-N-[4-{[(methylsulfonyl)amino]methyl}-1-oxophthalazin-2(1H)-yl]acetamide] | 26.5% | – | –
13 | O=C(CC(F)(F)F)Nn1nc(N2CCOCC2)c2ccccc2c1=O [Example 136, 3,3,3-trifluoro-N-[4-(morpholin-4-yl)-1-oxophthalazin-2(1H)-yl]propanamide] | 49.1% | 6230 nM | –

Next, values leading:

Row | Emax (HEK293 KCNQ2/KCNQ3 cells) | EC50 | % MAX (maximum response relative to the response of 10 μM retigabine (set at 100%), HEK293 KCNQ2/KCNQ3 cells) | Structure (SMILES)
14 | 135% | 31.1 nM | – | O=C(CC1CC2CCC1C2)Nn1nc(C(=O)c2ccccc2)c2ccccc2c1=O (racemic) [Example 40, (±)-N-(4-benzoyl-1-oxophthalazin-2(1H)-yl)-2-[(exo)-bicyclo[2.2.1]hept-2-yl]acetamide]
15 | 147% | 132 nM | – | CN(Cc1ccccc1)c1nn(NC(=O)Cc2cc(F)cc(F)c2)c(=O)c2ccccc12 [Example 53, N-{4-[benzyl(methyl)amino]-1-oxophthalazin-2(1H)-yl}-2-(3,5-difluorophenyl)acetamide]
16 | 137% | 161 nM | – | O=C(Cc1cc(F)cc(F)c1)Nn1nc(-c2cccs2)c2ccccc2c1=O [Example 10, 2-(3,5-difluorophenyl)-N-[1-oxo-4-(thiophen-2-yl)phthalazin-2(1H)-yl]acetamide]
17 | 138% | 131 nM | – | O=C(C[C@@H]1C[C@@H]2C=C[C@H]1C2)Nn1nc(-c2cccs2)c2ccccc2c1=O [Example 13, 2-[(1S,2S,4S)-bicyclo[2.2.1]hept-5-en-2-yl]-N-[1-oxo-4-(thiophen-2-yl)phthalazin-2(1H)-yl]acetamide]
18 | 185% | 102 nM | – | CN(Cc1ccccc1)c1nn(NC(=O)CC(C)(C)c2ccccc2)c(=O)c2ccccc12 [Example 52, N-{4-[benzyl(methyl)amino]-1-oxophthalazin-2(1H)-yl}-3-methyl-3-phenylbutanamide]
19 | 122% | 378 nM | – | CN(C)c1ccc(-c2nn(NC(=O)CC3CC4CCC3C4)c(=O)c3ccccc23)cn1 (racemic) [Example 47, (±)-2-[(exo)-bicyclo[2.2.1]hept-2-yl]-N-{4-[6-(dimethylamino)pyridin-3-yl]-1-oxophthalazin-2(1H)-yl}acetamide]
20 | 134% | 261 nM | – | CC(C)(CC(=O)Nn1nc(-c2ccc(Cl)nc2)c2ccccc2c1=O)c1ccccc1 [Example 27, N-[4-(6-chloropyridin-3-yl)-1-oxophthalazin-2(1H)-yl]-3-methyl-3-phenylbutanamide]
21 | 123% | 228 nM | – | CC1CN(c2nn(NC(=O)CC(C)(C)c3ccccc3)c(=O)c3ccccc23)CC(C)O1 (stereo not shown) [Example 61, N-[4-(2,6-dimethylmorpholin-4-yl)-1-oxophthalazin-2(1H)-yl]-3-methyl-3-phenylbutanamide]
22 | 146% | 168 nM | – | O=C(CC1CC2CCC1C2)Nn1nc(-c2ccccn2)c2ccccc2c1=O (racemic) [Example 19, (±)-2-[(exo)-bicyclo[2.2.1]hept-2-yl]-N-[1-oxo-4-(pyridin-2-yl)phthalazin-2(1H)-yl]acetamide]
23 | 129% | 455 nM | – | O=C(CC1CC2CCC1C2)Nn1nc(-c2cccnc2)c2ccccc2c1=O (racemic) [Example 8, (±)-2-[(exo)-bicyclo[2.2.1]hept-2-yl]-N-[1-oxo-4-(pyridin-3-yl)phthalazin-2(1H)-yl]acetamide]
24 | 197% | 21.7 nM | – | O=C(CC1CC2CCC1C2)Nn1nc(SCc2ccccc2)c2ccccc2c1=O (racemic) [Example 214, (±)-N-[4-(benzylsulfanyl)-1-oxophthalazin-2(1H)-yl]-2-[(exo)-bicyclo[2.2.1]hept-2-yl]acetamide]
25 | 154% | 164 nM | – | O=C(CC12CC3CC(CC1C3)C2)Nn1nc(N2CCOCC2)c2ccccc2c1=O [Example 210, 2-(hexahydro-2,5-methanopentalen-3a(1H)-yl)-N-[4-(morpholin-4-yl)-1-oxophthalazin-2(1H)-yl]acetamide]
26 | 136% | 198 nM | – | O=C(Cc1ccc(Cl)cc1)Nn1nc(N2CCCC2)c2ccccc2c1=O [Example 21, 2-(4-chlorophenyl)-N-[1-oxo-4-(pyrrolidin-1-yl)phthalazin-2(1H)-yl]acetamide]

Reference: patent publication US8859549B2, “Potassium channel modulators” (AbbVie, Inc., priority 2011, dated 2014)
